Experimental data as given in patent US20180194762A1 (Pharmacyclics LLC, priority 2017, published 2018).

Legend:
Assay type in all cases: biochemical
panel of kinases = target: T1, panel of kinases (Homo sapiens, UniProt P51813); assay: Inhibition of a panel of kinases (in vitro HotSpot kinase assay, 33P-ATP, 1 μM ATP), other kinases; conditions: BMX wild-type, read-out: BMX-WT IC50
T1 sequence (P51813 1-675): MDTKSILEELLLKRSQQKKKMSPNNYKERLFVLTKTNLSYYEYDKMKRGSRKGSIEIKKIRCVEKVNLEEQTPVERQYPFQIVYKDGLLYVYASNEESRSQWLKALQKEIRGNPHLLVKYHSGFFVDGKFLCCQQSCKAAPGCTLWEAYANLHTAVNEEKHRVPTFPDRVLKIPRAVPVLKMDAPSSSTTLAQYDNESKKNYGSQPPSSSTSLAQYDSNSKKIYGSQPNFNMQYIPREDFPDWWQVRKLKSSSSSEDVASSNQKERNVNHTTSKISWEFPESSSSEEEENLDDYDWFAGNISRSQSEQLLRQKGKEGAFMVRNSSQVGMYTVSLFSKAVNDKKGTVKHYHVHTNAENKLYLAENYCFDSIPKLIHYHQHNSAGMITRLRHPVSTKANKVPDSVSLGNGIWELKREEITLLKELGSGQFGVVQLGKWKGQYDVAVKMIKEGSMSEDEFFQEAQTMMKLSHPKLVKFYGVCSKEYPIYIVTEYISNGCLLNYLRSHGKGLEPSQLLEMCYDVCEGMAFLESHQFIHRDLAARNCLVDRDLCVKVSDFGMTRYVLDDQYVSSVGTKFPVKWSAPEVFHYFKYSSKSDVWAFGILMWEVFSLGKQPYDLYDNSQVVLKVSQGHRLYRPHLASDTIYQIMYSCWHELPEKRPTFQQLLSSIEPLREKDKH
How it was run: (§1)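 Degree of kinase inhibition is determined in vitro using isolated enzymes, a matched substrate and radiolabelled ATP (1 μM).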

Btk = target: T2, Btk (Homo sapiens, UniProt Q06187); assay: Btk in vitro inhibitory activity (one of Method A TR-FRET, Method B electrophoretic mobility shift, Method C radiometric filter binding); conditions: wild-type Btk; read-out: Btk-WT IC50
T2 construct: purified from insect cells as a full-length construct containing a N-terminal 6X-His tag; His6 (N); made in house; host or cells: insect cells (Method C)
T2 sequence (Q06187 whole entry): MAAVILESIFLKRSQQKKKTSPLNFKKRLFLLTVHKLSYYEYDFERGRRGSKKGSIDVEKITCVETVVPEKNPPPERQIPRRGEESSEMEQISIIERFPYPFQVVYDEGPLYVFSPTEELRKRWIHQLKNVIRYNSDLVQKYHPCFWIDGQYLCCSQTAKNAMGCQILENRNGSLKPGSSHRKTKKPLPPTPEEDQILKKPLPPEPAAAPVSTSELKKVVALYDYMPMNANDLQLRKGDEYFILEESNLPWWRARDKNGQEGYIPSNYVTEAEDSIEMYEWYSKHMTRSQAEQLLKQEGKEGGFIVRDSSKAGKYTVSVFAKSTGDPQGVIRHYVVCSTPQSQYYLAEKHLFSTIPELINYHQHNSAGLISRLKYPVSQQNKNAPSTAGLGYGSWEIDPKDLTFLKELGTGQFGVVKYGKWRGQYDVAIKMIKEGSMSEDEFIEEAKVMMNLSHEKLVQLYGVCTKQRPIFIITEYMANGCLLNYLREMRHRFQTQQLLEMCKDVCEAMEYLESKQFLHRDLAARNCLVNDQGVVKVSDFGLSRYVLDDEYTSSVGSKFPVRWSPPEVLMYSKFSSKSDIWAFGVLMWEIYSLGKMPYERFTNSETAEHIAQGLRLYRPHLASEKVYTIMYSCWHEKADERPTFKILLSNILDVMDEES
How it was run: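 Method A: TR-FRET with 0.5 nM Btk at [ATP]=Km, EDTA-quenched, 665/615 nm ratio; Ki(app) converted to IC50. Method B: 1 nM full-length His6 human BTK, 1 μM FAM peptide, pH 7.5, mobility-shift product/sum ratio, 12-point 4-parameter fit. Method C: radiometric filter binding, 8 nM His-tagged BTK, 0.2 mg/mL poly-Glu-Tyr.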

TEC = target: T3, TEC (Homo sapiens, UniProt P42680); assay: Inhibition of a panel of kinases (in vitro HotSpot kinase assay, 33P-ATP, 1 μM ATP); conditions: for IC50: HotSpot kinase assay, 1 μM ATP; for TEC/Btk: ratio of TEC IC50 to Btk IC50 (selectivity)
T3 sequence (P42680 1-631): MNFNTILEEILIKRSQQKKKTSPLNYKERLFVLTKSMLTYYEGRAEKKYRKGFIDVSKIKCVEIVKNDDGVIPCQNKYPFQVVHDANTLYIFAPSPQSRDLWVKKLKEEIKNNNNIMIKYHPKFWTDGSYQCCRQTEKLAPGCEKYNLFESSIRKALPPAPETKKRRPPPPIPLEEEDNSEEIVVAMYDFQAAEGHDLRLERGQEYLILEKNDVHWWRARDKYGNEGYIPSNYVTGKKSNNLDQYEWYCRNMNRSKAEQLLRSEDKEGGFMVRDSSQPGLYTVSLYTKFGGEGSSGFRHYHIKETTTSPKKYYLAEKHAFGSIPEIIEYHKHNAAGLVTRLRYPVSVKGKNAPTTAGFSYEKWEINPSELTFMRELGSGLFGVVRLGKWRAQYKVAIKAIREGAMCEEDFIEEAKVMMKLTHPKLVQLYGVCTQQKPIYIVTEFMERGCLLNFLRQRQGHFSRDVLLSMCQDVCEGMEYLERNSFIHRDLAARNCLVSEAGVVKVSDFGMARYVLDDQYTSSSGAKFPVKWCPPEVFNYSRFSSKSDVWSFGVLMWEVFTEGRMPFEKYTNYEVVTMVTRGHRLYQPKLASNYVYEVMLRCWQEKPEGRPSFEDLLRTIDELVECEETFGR
How it was run: as §1

Question: `CCNC(=O)N1C[C@H](Nc2n[nH]c3nccc(-c4ccc(CNC(=O)c5nc(C(C)(C)C)no5)c(F)c4)c23)CC[C@@H]1C` [Example 209, (2S,5R)-5-{[4-(4-{[(3-tert-butyl-1,2,4-oxadiazole-5-carbonyl)amino]methyl}-3-fluorophenyl)-1H-pyrazolo[3,4-b]pyridin-3-yl]amino}-N-ethyl-2-methylpiperidine-1-carboxamide] was tested. Which IC50 (panel of kinases) did it give?
Answer: 2200 nM

Question: What about the IC50 (Btk) of the same molecule?
Answer: 1.26 nM

Question: And the IC50 (TEC)?
Answer: 905 nM

Question: What about the TEC/Btk (TEC) of the same molecule?
Answer: 718

Question: Which IC50 (panel of kinases) does the source give for `C[C@@H](NC(=O)c1nc(C(C)(C)C)no1)c1ccc(-c2ccnc3[nH]nc(N4CCOCC4)c23)cc1` [Example 219, 3-tert-butyl-N-[(1R)-1-{4-[3-(morpholin-4-yl)-1H-pyrazolo[3,4-b]pyridin-4-yl]phenyl}ethyl]-1,2,4-oxadiazole-5-carboxamide] here?
Answer: 582 nM

Question: And the IC50 (Btk)?
Answer: 0.186 nM

Question: What about the IC50 (TEC) of the same molecule?
Answer: 781 nM

Question: And the TEC/Btk (TEC)?
Answer: 4199

Question: Which IC50 (panel of kinases) does the source give for `C[C@@H](NC(=O)c1nc(C(C)(C)C)no1)c1ccc(-c2ccnc3[nH]nc(N4CCS(=O)(=O)CC4)c23)cc1` [Example 220, 3-tert-butyl-N-[(1R)-1-{4-[3-(1,1-dioxo-1λ^6-thiomorpholin-4-yl)-1H-pyrazolo[3,4-b]pyridin-4-yl]phenyl}ethyl]-1,2,4-oxadiazole-5-carboxamide] here?
Answer: 5700 nM

Question: And the IC50 (Btk)?
Answer: 1.49 nM

Question: What about the IC50 (TEC) of the same molecule?
Answer: 8960 nM

Question: What about the TEC/Btk (TEC) of the same molecule?
Answer: 6013

Question: With `CC(C)(C)c1noc(C(=O)NCc2ccc(-c3ccnc4[nH]nc(N5CCC(NS(=O)(=O)C6CC6)CC5)c34)cc2F)n1` [Example 224, 3-tert-butyl-N-{[4-(3-{4-[(cyclopropanesulfonyl)amino]piperidin-1-yl}-1H-pyrazolo[3,4-b]pyridin-4-yl)-2-fluorophenyl]methyl}-1,2,4-oxadiazole-5-carboxamide] as the molecule, how does the IC50 (panel of kinases) read?
Answer: 249 nM

Question: And the IC50 (Btk)?
Answer: 0.0926 nM

Question: And the IC50 (TEC)?
Answer: 289 nM

Question: What about the TEC/Btk (TEC) of the same molecule?
Answer: 3121

Question: Which IC50 (panel of kinases) does the source give for `COC(=O)N1C[C@H](Nc2n[nH]c3nccc(-c4ccc(CNC(=O)c5noc(C(C)(C)C)n5)c(F)c4)c23)CC[C@@H]1C` [Example 226, methyl (2S,5R)-5-{[4-(4-{[(5-tert-butyl-1,2,4-oxadiazole-3-carbonyl)amino]methyl}-3-fluorophenyl)-1H-pyrazolo[3,4-b]pyridin-3-yl]amino}-2-methylpiperidine-1-carboxylate] here?
Answer: 2110 nM

Question: And the IC50 (Btk)?
Answer: 1.48 nM

Question: And the IC50 (TEC)?
Answer: 1370 nM

Question: And the TEC/Btk (TEC)?
Answer: 926

Question: How did the IC50 (panel of kinases) turn out when `C[C@H]1CC[C@@H](Nc2n[nH]c3nccc(-c4ccc(CNC(=O)c5noc(C(C)(C)C)n5)c(F)c4)c23)CN1C(=O)CO` [Example 227, 5-tert-butyl-N-{[2-fluoro-4-(3-{[(3R,6S)-1-(hydroxyacetyl)-6-methylpiperidin-3-yl]amino}-1H-pyrazolo[3,4-b]pyridin-4-yl)phenyl]methyl}-1,2,4-oxadiazole-3-carboxamide] was run?
Answer: 704 nM

Question: What about the IC50 (Btk) of the same molecule?
Answer: 0.458 nM

Question: And the IC50 (TEC)?
Answer: 205 nM

Question: And the TEC/Btk (TEC)?
Answer: 448

Question: How did the IC50 (panel of kinases) turn out when `CC(=O)N1C[C@H](Nc2n[nH]c3nccc(-c4ccc(CNC(=O)c5noc(C(C)(C)C)n5)c(F)c4)c23)CC[C@@H]1C` [Example 229, N-{[4-(3-{[(3R,6S)-1-acetyl-6-methylpiperidin-3-yl]amino}-1H-pyrazolo[3,4-b]pyridin-4-yl)-2-fluorophenyl]methyl}-5-tert-butyl-1,2,4-oxadiazole-3-carboxamide] was run?
Answer: 531 nM

Question: What about the IC50 (Btk) of the same molecule?
Answer: 0.383 nM

Question: And the IC50 (TEC)?
Answer: 298 nM

Question: What about the TEC/Btk (TEC) of the same molecule?
Answer: 778

Question: Which IC50 (panel of kinases) does the source give for `C[C@H]1CC[C@@H](Nc2n[nH]c3nccc(-c4ccc(CNC(=O)c5noc(C(C)(C)C)n5)c(F)c4)c23)CN1C(=O)N1CCOCC1` [Example 230, 5-tert-butyl-N-{[2-fluoro-4-(3-{[(3R,6S)-6-methyl-1-(morpholine-4-carbonyl)piperidin-3-yl]amino}-1H-pyrazolo[3,4-b]pyridin-4-yl)phenyl]methyl}-1,2,4-oxadiazole-3-carboxamide] here?
Answer: 856 nM

Question: What about the IC50 (Btk) of the same molecule?
Answer: 0.412 nM

Question: What about the IC50 (TEC) of the same molecule?
Answer: 472 nM

Question: And the TEC/Btk (TEC)?
Answer: 1146

Question: Which IC50 (panel of kinases) does the source give for `C[C@@H](NC(=O)c1nc(C(C)(C)C)no1)c1ccc(-c2ccnc3[nH]nc(N4CCNCC4)c23)cc1` [Example 238, 3-tert-butyl-N-[(1R)-1-{4-[3-(piperazin-1-yl)-1H-pyrazolo[3,4-b]pyridin-4-yl]phenyl}ethyl]-1,2,4-oxadiazole-5-carboxamide] here?
Answer: 2670 nM

Question: What about the IC50 (Btk) of the same molecule?
Answer: 4.24 nM

Question: What about the IC50 (TEC) of the same molecule?
Answer: 4610 nM

Question: What about the TEC/Btk (TEC) of the same molecule?
Answer: 1087

Question: How did the IC50 (panel of kinases) turn out when `C[C@H]1CC[C@@H](Nc2n[nH]c3nccc(-c4ccc(CN5CCn6c(cc7c6CC(C)(C)C7)C5=O)c(F)c4)c23)CN1C(=O)N(C)C` [Example 239, (2S,5R)-5-[(4-{4-[(7,7-dimethyl-1-oxo-1,3,4,6,7,8-hexahydro-2H-cyclopenta[4,5]pyrrolo[1,2-a]pyrazin-2-yl)methyl]-3-fluorophenyl}-1H-pyrazolo[3,4-b]pyridin-3-yl)amino]-N,N,2-trimethylpiperidine-1-carboxamide] was run?
Answer: 3780 nM

Question: What about the IC50 (Btk) of the same molecule?
Answer: 10.1 nM

Question: What about the IC50 (TEC) of the same molecule?
Answer: 3880 nM

Question: What about the TEC/Btk (TEC) of the same molecule?
Answer: 384

Question: For `C[C@H]1CC[C@@H](Nc2n[nH]c3nccc(-c4ccc(CN5CCn6c(cc7c6CCCC7)C5=O)c(F)c4)c23)CN1C(=O)N(C)C` [Example 240, (2S,5R)-5-[(4-{3-fluoro-4-[(1-oxo-3,4,6,7,8,9-hexahydropyrazino[1,2-a]indol-2(1H)-yl)methyl]phenyl}-1H-pyrazolo[3,4-b]pyridin-3-yl)amino]-N,N,2-trimethylpiperidine-1-carboxamide], which IC50 (panel of kinases) is on record?
Answer: 387 nM

Question: And the IC50 (Btk)?
Answer: 5.5 nM

Question: What about the IC50 (TEC) of the same molecule?
Answer: 5030 nM

Question: And the TEC/Btk (TEC)?
Answer: 915

Question: `CN1CCCN([C@@H]2CCN(c3n[nH]c4nccc(-c5ccc(CNC(=O)c6nc(C(C)(C)C)no6)c(F)c5)c34)C2)C1=O` [Example 241, 3-tert-butyl-N-[(2-fluoro-4-{3-[(3R)-3-(3-methyl-2-oxo-1,3-diazinan-1-yl)pyrrolidin-1-yl]-1H-pyrazolo[3,4-b]pyridin-4-yl}phenyl)methyl]-1,2,4-oxadiazole-5-carboxamide] was tested. Which IC50 (panel of kinases) did it give?
Answer: 5010 nM

Question: What about the IC50 (Btk) of the same molecule?
Answer: 4.73 nM

Question: What about the IC50 (TEC) of the same molecule?
Answer: 5560 nM

Question: What about the TEC/Btk (TEC) of the same molecule?
Answer: 1175

Question: With `C[C@@H](NC(=O)c1nc(C(C)(C)C)no1)c1ccc(-c2ccnc3[nH]nc(C4=CCCN(C(=O)N(C)C)C4)c23)cc1` [Example 243, 5-[4-(4-{(1R)-1-[(3-tert-butyl-1,2,4-oxadiazole-5-carbonyl)amino]ethyl}phenyl)-1H-pyrazolo[3,4-b]pyridin-3-yl]-N,N-dimethyl-3,6-dihydropyridine-1(2H)-carboxamide] as the molecule, how does the IC50 (panel of kinases) read?
Answer: 4450 nM

Question: What about the IC50 (Btk) of the same molecule?
Answer: 4.39 nM

Question: And the IC50 (TEC)?
Answer: 5880 nM

Question: What about the TEC/Btk (TEC) of the same molecule?
Answer: 1339

Question: For `C[C@@H](NC(=O)c1nc(C(C)(C)C)no1)c1ccc(-c2ccnc3[nH]nc(C4CCN(C(=O)N(C)C)CC4)c23)cc1` [Example 244, 4-[4-(4-{(1R)-1-[(3-tert-butyl-1,2,4-oxadiazole-5-carbonyl)amino]ethyl}phenyl)-1H-pyrazolo[3,4-b]pyridin-3-yl]-N,N-dimethylpiperidine-1-carboxamide], which IC50 (panel of kinases) is on record?
Answer: 5870 nM

Question: What about the IC50 (Btk) of the same molecule?
Answer: 1.63 nM

Question: What about the IC50 (TEC) of the same molecule?
Answer: 9550 nM

Question: What about the TEC/Btk (TEC) of the same molecule?
Answer: 5859

Question: What does the source list for `CN1CCCN([C@@H]2CCN(c3n[nH]c4nccc(-c5ccc(CNC(=O)c6noc(C(C)(C)C)n6)c(F)c5)c34)C2)C1=O` [Example 250, 5-tert-butyl-N-[(2-fluoro-4-{3-[(3R)-3-(3-methyl-2-oxo-1,3-diazinan-1-yl)pyrrolidin-1-yl]-1H-pyrazolo[3,4-b]pyridin-4-yl}phenyl)methyl]-1,2,4-oxadiazole-3-carboxamide]?
Answer: IC50 (panel of kinases): 8370 nM; IC50 (Btk): 11.7 nM; IC50 (TEC): 6920 nM; TEC/Btk (TEC): 591
